Values of other authors in patent US20230081296A1, “STABLE NON-AQUEOUS COMPOSITIONS OF PLANTS EXTRACTS AND METHODS OF MAKING THE SAME” (Nulixir Inc., priority 2021, published 2023).

Conditions: reference phases water and n-octanol; categorization assumed at pH = 7 unless stated otherwise
For `COc1cc2c(c(OC)c1OC)-c1c(cc(OC)c(OC)c1OC)C[C@](C)(O)[C@@H](C)C2` [schisandrol A], the logP is listed as roughly 3.4.
For (-)-schisandrin C, the logP is listed as roughly 3.5.
For `COC1=CC(=O)OC(/C=C/c2ccc(OC)cc2)C1` (centres unmarked) [5,6-dihydroyangonin], the logP is listed as roughly 2.5.
In the case of `COc1cc2c(c(OC)c1OC)-c1c(cc3c(c1OC)OCO3)CC(C)C(C)C2` (single isomer, unassigned; (-)) [(-)-schisandrin B], the logP is listed as roughly 4.
In the case of (R)-kawain, the logP is listed as roughly 2.7.
For hericerin, the logP is given as roughly 6.4.
For `COc1cc2c(c(OC)c1OC)-c1c(cc(OC)c(OC)c1OC)C[C@H](C)[C@H](C)C2` [(-)-schisandrin A], the logP is listed as roughly 3.6.
For `COC1=CC(=O)O[C@@H](CCc2ccc3c(c2)OCO3)C1` [7,8-dihydromethysticin], the logP is given as roughly 2.2.
In the case of `CC(/C=C/C=C(\C)C(=O)O[C@@H]1O[C@H](CO[C@@H]2O[C@H](CO)[C@@H](O)[C@H](O)[C@H]2O)[C@@H](O)[C@H](O)[C@H]1O)=C\C=C\C=C(C)\C=C\C=C(/C)C(=O)O[C@@H]1O[C@H](CO[C@@H]2O[C@H](CO)[C@@H](O)[C@H](O)[C@H]2O)[C@@H](O)[C@H](O)[C@H]1O` [alpha -crocin], the logP is listed as roughly -1.5.
In the case of `COc1nc2c(c(=O)n1C)n(C)c(=O)n2C` [methylliberine], the logP is listed as roughly -0.083.
In the case of `COc1cc(/C=C\c2ccc(OC)c(O)c2)oc(=O)c1` [11-hydroxyyangonin], the logP is listed as roughly 2.2.
For `COc1ccc([C@@]23CCC(=O)C[C@@H]2N(C)CC3)cc1OC` [mesembrine], the logP is given as roughly 1.5.
In the case of bacopaside B, the logP is given as roughly 2.8.
In the case of `N#C[C@@]1(O[C@@H]2O[C@H](CO)[C@@H](O)[C@H](O)[C@H]2O)C=C[C@@H](O)C1` [tetraphyllin B], the logP is given as roughly -2.5.
In the case of `COc1ccc(CCc2cc(OC)cc(=O)o2)cc1` [7,8-dihydroyangonin], the logP is listed as roughly 2.9.
In the case of `COc1cc([C@H]2Oc3cc(O)c4c(=O)c(O)c(-c5ccc(O)cc5)oc4c3O[C@@H]2CO)ccc1O` [rhodiolin], the logP is given as roughly 2.
In the case of `CC(=O)OC1C=CC(=O)N(C(=O)CCc2ccccc2)C1` (centres unmarked) [pipermethystine], the logP is listed as roughly 1.8.
In the case of tortuosomine, the logP is given as roughly 3.
In the case of `CC1=C(CO)C(=O)O[C@@H]([C@@H](C)[C@H]2CC[C@H]3[C@@H]4C[C@H](Cl)[C@]5(O)[C@@H](O)C=CC(=O)[C@]5(C)[C@H]4CC[C@]23C)C1` [6a-chloro-5b-hydroxywithaferin A], the logP is given as roughly 3.2.
For schisandroside C, the logP is given as roughly 1.6.
For `COc1cc2c(c(OC)c1OC)-c1c(cc(OC)c(OC)c1OC)C[C@](C)(O)[C@@H](C)C2` [(+)-schisandrin], the logP is listed as roughly 5.
For `COc1cc(/C=C/c2ccccc2)oc(=O)c1` [5,6-dehydrokawain], the logP is given as roughly 2.9.
In the case of herinacine A, the logP is listed as roughly 2.5.
